The values that follow come from the COVID Moonshot data (paper PMC7615835).

SMILES strings stand for the structures. Several values for one entry are separate records, joined by “and”; a condition that tells them apart may be missing. Equal entries are not always repeated.

This assay addresses SARS-CoV-2 Main Protease (SARS-CoV-2) (UniProt P0DTD1).

What is called IC50 is the midpoint of a concentration-inhibition curve. Higher therefore signals lower potency. Compound `CC(C)(C)c1ccc(N(C(=O)c2cncs2)C(C(=O)NCCc2cccc(F)c2)c2cccnc2)cc1` (configuration not stated) showed an IC50 of 24.2 µM. This lies in the double-digit micromolar range.

Consider `CCC(c1ccncc1)N(C)C(=O)Cc1c[nH]c2ncccc12` (configuration not stated), for which the IC50 was above 99.5 µM.

`O=C(Cc1cc(Cl)cc(Nc2ccc3scnc3c2)c1)Nc1cncc2ccccc12` yielded an IC50 of 2.22 µM.

In turn, `C[n+]1ccn(CCCc2cccc(Cl)c2)c1C#N` gave an IC50 above 99.5 µM.

For the compound `Nc1nn(C(=O)Cc2cccc(Cl)c2)c2ccccc12`, the IC50 is above 99.5 µM.

On to `O=C(CCl)NC(CO)c1cccc(Cl)c1` (configuration not stated), for which the IC50 was above 99 µM.

`O=C(Nc1cncc2ccccc12)C1CN(CC2CC2)C(=O)c2ccc(Cl)cc21` (configuration not stated) came in with an IC50 of 0.381 µM.

`O=C(CN1CC(C(=O)Nc2cncc3ccccc23)c2cc(Cl)ccc2C1=O)NC1CCC1` (configuration not stated) returned an IC50 of 0.129 µM.

In turn, `CS(=O)(=O)Nc1ccc2cncc(NC(=O)C3CNC(=O)c4ccc(Cl)cc43)c2c1` (configuration not stated) returned an IC50 of 0.195 µM.

`O=C(Cc1cc(Cl)cc(NC2CCN(Cc3ccccc3)CC2)c1)Nc1cncc2ccccc12` registered an IC50 of 5.93 µM. Against the preceding compound, the IC50 is about 30-fold higher.

The compound `CCS(=O)(=O)c1cc(Cl)cc(CNS(=O)(=O)c2cccs2)c1` displayed an IC50 above 99.5 µM.

In turn, `O=C(Nc1cncc2ccccc12)[C@H]1CCNc2cc(Cl)c(Cl)cc21` (stereo in doubt) came in with an IC50 above 99.5 µM.

As for `CNC(=O)C1(N2CC3(CCN(c4cncc5cc(S(C)(=O)=O)ccc45)C3=O)c3cc(Cl)ccc3C2=O)CC1` (configuration not stated), the half-inhibitory concentration (IC50) came out at 0.265 µM. This counts as sub-micromolar.

`Cn1nncc1C(=O)N(c1ccc(C(C)(C)C)cc1)C(C(=O)NCCc1cccc(F)c1)c1cccnc1` (configuration not stated) returned an IC50 above 99.5 µM.

For `O=C(Nc1cncc2ccccc12)C1CCOc2c1ccc(Cl)c2Cl` (configuration not stated), the half-inhibitory concentration (IC50) was 3.31 µM.

`CC1(C(=O)Nc2cncc3cc(S(C)(=O)=O)ccc23)CN(CC2CC2)S(=O)(=O)c2ccc(Cl)cc21` (configuration not stated) displayed an IC50 of 0.615 µM.

The compound `Cc1ccccc1C(C)NC(C)C(=O)Nc1ccc2[nH]c(=O)[nH]c2c1` (configuration not stated) showed an IC50 above 99.5 µM.

For the compound `CC(C)Oc1ccc(N(C(=O)c2cnc[nH]2)C(C(=O)NCCc2cccc(F)c2)c2cccnc2)cc1` (configuration not stated), the IC50 is 0.857 µM and 0.592 µM.

Compound `CC(=O)N(CC(=O)Nc1ccc(F)c(Cl)c1)c1cccc(Cl)c1` returned a half-inhibitory concentration (IC50) above 99.5 µM.

The compound `O=C(NCCc1cccc(F)c1)C(c1cccnc1)N(C(=O)c1cocn1)C1CCCCCC1` (configuration not stated) returned an IC50 above 99.5 µM.

For the compound `O=C(Cc1cc(Cl)cc(N2CCN(CCc3ccccc3)CC2)c1)Nc1cncc2ccccc12`, the half-maximal inhibitory concentration (IC50) was 5.02 µM.

`Cc1nc2scc(C)n2c1CN1CCN(Cc2ccsc2)CC1` came in with an IC50 above 99.5 µM.

On to `O=C(Nc1cncc2ccccc12)[C@@H]1COc2ccc(Cl)cc21` (stereo in doubt), for which the IC50 was 0.529 µM and 0.67 µM and 0.483 µM.

In turn, `COc1ccccc1N1CCN(C(=O)c2cc(=O)[nH]c3ccccc23)CC1` returned an IC50 of 32.8 µM.

On to `COc1ccccc1CN(C(=O)c1cocn1)C(C(=O)NCCc1cccc(F)c1)c1cccnc1` (configuration not stated), for which the IC50 was above 99.5 µM.

In turn, `CNC(=O)CN1Cc2ccc(Cl)cc2C2(CCN(c3cncc4ccc(OC)cc34)C2=O)C1` (configuration not stated) displayed an IC50 of 0.153 µM. In other words, the sub-micromolar range.

`Cc1nc(Br)ccc1Nc1cc(Cl)cc(CC(=O)Nc2cncc3ccccc23)c1` displayed an IC50 of 2.82 µM.

The compound `CC(NC(=O)CCl)c1cc(F)cc(Cl)c1` (configuration not stated) registered an IC50 of 27.9 µM.

In turn, `Cc1ccc(N(Cc2cscn2)C(=O)Cc2cncc3ccccc23)cc1` registered an IC50 of 8.09 µM.

Take `CCCc1nn(C)c(C(=O)Nc2cc(Cl)cc(CC(=O)Nc3cncc4ccccc34)c2)c1N`: the IC50 stood at 7.35 µM.

`CC(C)(C)c1ccc(N(C(=O)c2ccco2)C(C(=O)NCCc2cccc(F)c2)c2snc3ccccc23)cc1` (configuration not stated) yielded an IC50 of 5.33 µM.

In turn, `COc1cc(Cl)cc2c1OCC[C@H]2C(=O)Nc1cncc2ccccc12` (stereo in doubt) came in with an IC50 above 99.5 µM.

The compound `Cc1ccc(S(=O)(=O)NCCNC(=O)N2CCN(S(=O)(=O)N3CCCC3)CC2)cc1` had an IC50 above 99.5 µM.

Consider `Cc1ccc2ncc(NC(=O)Cc3cccc(Cl)c3)n2c1`, for which the IC50 amounted to 9.01 µM. This counts as single-digit micromolar.

As to `CNC(=O)C1(N2Cc3ccc(Cl)cc3C3(CCN(c4cncc5ccc(OCCN(C)C)cc45)C3=O)C2)CC1` (configuration not stated), the IC50 was determined as 0.614 µM.

`CCN(c1ccccc1)S(=O)(=O)c1ccc(OC)c(NC(=O)CCl)c1` showed an IC50 of 3.23 µM.

As for `O=C(Cc1cc(Cl)cc(Nc2ccc(Oc3ccc(Cl)cc3)cc2)c1)Nc1cncc2ccccc12`, the IC50 worked out at 2.44 µM. The IC50 values of the last two compounds are within 1.5-fold of each other.

The compound `Cn1cc(C(=O)N(c2ccc(C(C)(C)C)cc2)C(C(=O)NCCc2cccc(F)c2)c2cccnc2)n(C)c1=O` (configuration not stated) showed an IC50 above 99.5 µM.

`Cc1ccc(Nc2cc(Cl)cc(CC(=O)Nc3cncc4ccccc34)c2)cc1I` showed an IC50 of 2.07 µM.

`O=C(Cn1nnc2ccccc21)N(CC1CCOC1)c1ccc(C2CCNCC2)cc1` (configuration not stated) returned an IC50 above 99.5 µM.

`CC1(CS(=O)(=O)N2Cc3ccc(Cl)cc3C3(CCN(c4cncc5ccccc45)C3=O)C2)CS(=O)(=O)C1` (configuration not stated) gave an IC50 of 0.144 µM.

In turn, `CC(C)(C)c1ccc(N(C(=O)c2nnn[nH]2)C(C(=O)NCCc2cccc(F)c2)c2cccnc2)cc1` (configuration not stated) returned an IC50 above 99.5 µM.

In the case of `C#CCCCC(=O)N[C@@H](CC)C(=O)N[C@H](C(=O)N[C@@H](CC(C)C)C(=O)N[C@@H](CCC(=O)N(C)C)C(=O)COC(=O)c1c(C)cccc1C)C(C)(C)C` (stereo in doubt), the IC50 was 5.77 µM and 5.83 µM.

Consider `COc1c(C(=O)N(c2ccc(C(C)(C)C)cc2)C(C(=O)NCCc2cccc(F)c2)c2cccnc2)[nH]c(=O)[nH]c1=O` (configuration not stated), for which the IC50 is above 99.5 µM.

For `C=CC(=O)N1CCN(S(=O)(=O)c2ccccc2)CC1`, the IC50 was above 99.5 µM.

Compound `CCOC(=O)CCNC(=O)C(c1cccnc1)N(C(=O)c1cocn1)c1ccc(C(C)(C)C)cc1` (configuration not stated) had a 50% inhibitory concentration (IC50) of 2.8 µM. This lies in the single-digit micromolar range.

`COc1ccccc1CC(=O)Nc1cncc2ccccc12` gave an IC50 of 35 µM.

Compound `Cc1c(Nc2cc(Cl)cc(CC(=O)Nc3cncc4ccccc34)c2)c(=O)n(-c2ccccc2)n1C` returned an IC50 of 3.41 µM.

As to `O=C(Cc1cccc(Cl)c1)Nc1cn[nH]c1`, the IC50 is above 99.5 µM.

Compound `Cc1cc(=O)oc2cc(Nc3cc(Cl)cc(CC(=O)Nc4cncc5ccccc45)c3)ccc12` yielded a half-maximal inhibitory concentration (IC50) of 2.12 µM.

`Cc1cccc(C2CCCCN2C(=O)C(C)c2cncnc2)c1C` (configuration not stated) yielded an IC50 above 99.5 µM.

As to `Cc1cc(NC(=O)C2CCOc3ccc(Cl)cc32)ncc1N` (configuration not stated), the concentration for half-maximal inhibition (IC50) was above 99.5 µM.

`CC(C)(C#N)CS(=O)(=O)N1Cc2ccc(Cl)cc2[C@@H](C(=O)Nc2cncc3ccccc23)C1` (stereo in doubt) had an IC50 of 13.2 µM.

On to `CCC(=O)Nc1ccc(N(C)C(=O)Cn2nnc3ccccc32)cc1`, for which the IC50 was above 99.5 µM.

Compound `COc1ccc([C@H](C)Nc2cc(Cl)cc(CC(=O)Nc3cncc4ccccc34)c2)cc1` (stereo in doubt) displayed an IC50 of 4.73 µM. This counts as single-digit micromolar.

Turning to `O=C(Cc1cc(Cl)cc(Nc2cccc(N3CCOCC3)c2)c1)Nc1cncc2ccccc12`, the IC50 was found to be 2.44 µM.

`NC(=O)c1c(Nc2cc(Cl)cc(CC(=O)Nc3cncc4ccccc34)c2)sc2c1CCCC2` registered an IC50 of 2.43 µM.

For `CCc1cc(F)ccc1-c1cc(Cl)cc(CC(=O)Nc2cnccc2C)c1`, the IC50 came out at 31.6 µM.

`O=C(Nc1ccc(F)cc1)[C@@H]1CN(C(=O)CCl)CCN1S(=O)(=O)c1ccsc1` (stereo in doubt): the IC50 was determined as 0.593 µM. This IC50 lies about 53-fold lower than the previous one.

In turn, `O=C(Nc1cnccc1Cl)c1cc(Cl)ccc1O` gave an IC50 of 24.2 µM.

In turn, `CC(C)(C)c1ccc(N(C(=O)c2cocn2)C(C(=O)NCc2ccncc2)c2cccnc2)cc1` (configuration not stated) registered an IC50 above 99.5 µM.

Consider `CC(C)(C)c1ccc(N(C(=O)C2CCCO2)C(C(=O)NCCc2cccc(F)c2)c2cccnc2)cc1` (configuration not stated), for which the IC50 worked out at 5.56 µM.

In turn, `Cc1ccc2c(c1)c(CCN)cn2-c1cc(Cl)cc(CC(=O)Nc2cncc3ccccc23)c1` registered an IC50 of 1.63 µM.

The compound `CC(C)(C)c1ccc(N(C(=O)c2ccc(=O)[nH]n2)C(C(=O)NCCc2cccc(F)c2)c2cccnc2)cc1` (configuration not stated) returned an IC50 above 99.5 µM.

The compound `N#CC1(CS(=O)(=O)N2Cc3ccc(Cl)cc3C3(CCN(c4cncc5ccc(Cl)cc45)C3=O)C2)CC1` (configuration not stated) registered an IC50 of 0.82 µM. In other words, the sub-micromolar range.

`CC(C)(C)c1ccc(N(C(=O)c2cc(=O)c3c(O)cccc3o2)C(C(=O)NCCc2cccc(F)c2)c2cccnc2)cc1` (configuration not stated) showed an IC50 above 99.5 µM.

Turning to `O=C(Cc1ccc(Cl)c(Cl)c1)Nc1cncc2ccccc12`, the IC50 is 0.178 µM and 0.384 µM.

As to `NC(=O)CN1Cc2ccc(Cl)cc2C(C(=O)Nc2cncc3ccccc23)C1` (configuration not stated), the 50% inhibitory concentration (IC50) is 0.109 µM and 0.118 µM and 0.13 µM.

Turning to `Cc1cc(F)cc(Br)c1Nc1cc(Cl)cc(CC(=O)Nc2cncc3ccccc23)c1`, the IC50 was found to be 2 µM.

`O=C(Cc1cc(Cl)cc(Nc2ccc(-n3ccnc3)cc2)c1)Nc1cncc2ccccc12` returned an IC50 of 2.46 µM. The IC50 values of the last two compounds are within 1.5-fold of each other.

`CC(C)(C)OC(=O)N1CC(NC(=O)C(c2cccnc2)N(C(=O)c2cocn2)c2ccc(C(C)(C)C)cc2)C1` (configuration not stated) showed an IC50 of 6.91 µM.

In turn, `C=CC(=O)NCC(=O)N(CCN1CCOCC1)Cc1sccc1Br` came in with an IC50 above 99.5 µM.

`O=C(Cc1cccc(Cl)c1)Nc1cncc2cc(OCC(F)(F)F)ccc12` yielded an IC50 above 99.5 µM.

Regarding `O=C(Cc1cc(Cl)cc(Nc2ccc(Br)c(Cl)c2Cl)c1)Nc1cncc2ccccc12`, the IC50 came to 2.41 µM. In other words, the single-digit micromolar range.

For the compound `Cc1ccncc1NC(=O)Nc1cccc(C#N)c1`, the IC50 is above 99 µM.

Compound `O=CN1CCC(OC(=O)c2c[nH]nc2-c2ccc(Cl)cc2)CC1` returned an IC50 above 99.5 µM.

As to `N#Cc1cccc(NC(=O)Nc2cncc(N)c2)c1`, the IC50 was found to be 54.3 µM.

`Cc1sc(Nc2cc(Cl)cc(CC(=O)Nc3cncc4ccccc34)c2)nc1-c1ccc(Cl)cc1` yielded an IC50 of 2.82 µM.

The compound `COc1ccc(N(Cc2cccc(Cl)c2)C(=O)Cn2nnc3ccccc32)cc1` displayed an IC50 of 1.14 µM.

As to `O=C(Cc1ccccc1Cl)Nc1cncc2ccccc12`, the IC50 is above 99.5 µM.

Take `COc1ccc2c(NC(=O)C3CCOc4ccc(Cl)cc43)noc2c1` (configuration not stated): the IC50 was 61.5 µM. This counts as double-digit micromolar.

The compound `COc1ccc(Cl)cc1N1C(=O)CN(Cc2cc(=O)[nH]c3ccccc23)C1=O` gave an IC50 above 99.5 µM.

`O=C(Cc1cc(Cl)cc(N2CC=C(c3ccccc3)CC2)c1)Nc1cncc2ccccc12` registered a concentration for half-maximal inhibition (IC50) of 1.66 µM.

In the case of `COc1ccc(N(Cc2ccccc2)C(=O)Cc2c[nH]c3ccccc23)cc1`, the concentration for half-maximal inhibition (IC50) is above 99.5 µM.

In the case of `Cc1nc(Cl)c(Nc2cc(Cl)cc(CC(=O)Nc3cncc4ccccc34)c2)c(Cl)n1`, the IC50 was 1.64 µM.

Compound `CC(C)(C)c1cnc(N(C(=O)c2cocn2)C(C(=O)NCCc2cccc(F)c2)c2cccnc2)o1` (configuration not stated) gave an IC50 of 32.4 µM.

Turning to `Cc1nc(C)c(S(=O)(=O)NCC2CCCC3CC23)s1` (configuration not stated), the IC50 was above 99.5 µM.
